For data set [1], the system named is Tacaribe virus (TRVL 11573). Description: microbe, parasite or virus in culture. The conditions noted are these: Mammarenavirus tacaribeense, Vero, read-out: Tacaribe EC50. It counts as cell-based.
A further data set relates to Candide I. Description: microbe, parasite or virus in culture. The settings on record: Mammarenavirus juninense, read-out: Candide I. It counts as cell-based, Junin virus (vaccine strain).
The test system of data set [2] is Tacaribe virus. It counts as cell-based. The conditions noted are these: for EC50: read-out: Tacaribe (CPE) EC50.
In data set [3] the test system is Tacaribe virus. It counts as cell-based. The conditions noted are these: read-out: Tacaribe (Plaque reduction) EC50.
Data set [4] has as its system Candid-1 vaccine virus. It counts as cell-based, Junin virus (vaccine strain). The settings on record: read-out: Candid1 (CPE) EC50.
Another data set relates to Amapari virus. It counts as cell-based. The conditions noted are these: read-out: Amapari (CPE) EC50.
The next data set concerns Machupo virus. It counts as cell-based. The conditions noted are these: read-out: Machupo (Plaque reduction) EC50.
A further data set relates to Guanarito virus. It counts as cell-based. The conditions noted are these: read-out: Guanarito (Plaque reduction) EC50.
A further data set concerns Junin virus. It counts as cell-based. The settings on record: read-out: Junin (Plaque reduction) EC50.
A further data set deals with Lassa virus. It counts as cell-based. The settings on record: read-out: Lassa (plaque reduction) EC50.
Another data set relates to LCMV. It counts as cell-based, lymphocytic choriomeningitis virus. The conditions noted are these: read-out: LCMV (Elisa) EC50.
Another data set has as its system HSV-1. It counts as cell-based, herpes simplex virus 1. The conditions noted are these: read-out: HSV-1 (CPE) EC50.
For a further data set, the system named is CMV. It counts as cell-based, cytomegalovirus. The conditions noted are these: read-out: CMV (Elisa) EC50.
Another data set relates to vaccinia virus. It counts as cell-based. The conditions noted are these: read-out: Vaccinia (CPE) EC50.
In another data set the test system is RSV-A. It counts as cell-based, Respiratory syncytial virus. The settings on record: read-out: RSV-A (CPE) EC50.
The test system of the next data set is Rotavirus. It counts as cell-based. The settings on record: read-out: Rotavirus (CPE) EC50.
A further data set concerns SARS-CoV. It counts as cell-based. The conditions noted are these: read-out: SARS (CPE) EC50.
The subject of another data set is Ebola virus. It counts as cell-based. The conditions noted are these: read-out: Ebola (CPE) EC50.
The test system of data set [5] is Tacaribe virus. It counts as cell-based.
The subject of data set [6] is intact Tacaribe virion. It counts as binding, Tacaribe virus.
Data set [7] concerns intact Tacaribe virion. It counts as binding, Tacaribe virus. This is another data set of the same source.
Data set [8] relates to ST-336 drug resistant Tacaribe virus variants (DR#1-4). It counts as cell-based.
The conditions of data set [9]: in vivo.
The conditions of data set [10]: in vivo; cited from earlier work.
The subject of data set [11] is Tacaribe virus. Further details: species or system BALB/c mice. The settings on record: mouse, in vivo.
Data set [12] has as its system S. typhimurium tester strains TA7007, TA7006 and TA98.
The conditions of data set [13]: in vivo. The source holds these as a separate data set.
For data set [14] the following is noted: in vivo, 10 mg/kg.
The conditions of data set [15]: mouse, in vivo, ip, 100 mg/kg/day.
Data set [16] concerns Tacaribe virus. Description: microbe, parasite or virus in culture. The conditions noted are these: Mammarenavirus tacaribeense, Vero, 168 h, read-out: Tacaribe EC50. It counts as cell-based.
The test system of data set [17] is Candid-1 vaccine virus. Description: microbe, parasite or virus in culture. It counts as cell-based, Junin virus (vaccine strain). The settings on record: Mammarenavirus juninense, Vero, 168 h, read-out: Candid 1 EC50.
Data set [18] deals with Tacaribe pseudotyped virus. The data set is described as follows: microbe, parasite or virus in culture. It counts as cell-based. The conditions noted are these: Mammarenavirus tacaribeense, read-out: EC50 vs. pseudotyped virus (μM) Tacaribe.
In data set [19] the test system is Guanarito pseudotyped virus. The data set is described as follows: microbe, parasite or virus in culture. The settings on record: Mammarenavirus guanaritoense, read-out: EC50 vs. pseudotyped virus (μM) Guanarito. It counts as cell-based.
Data set [20] relates to Machupo pseudotyped virus. Description: microbe, parasite or virus in culture. It counts as cell-based. The conditions noted are these: Mammarenavirus machupoense, read-out: EC50 vs. pseudotyped virus (μM) Machupo.
Data set [21] deals with Pichinde pseudotyped virus. The data set is described as follows: microbe, parasite or virus in culture. It counts as cell-based. The conditions noted are these: read-out: EC50 vs. pseudotyped virus (μM) Pichinde.
A further data set concerns VSV pseudotyped virus. Description: microbe, parasite or virus in culture. It counts as cell-based. The settings on record: Vesicular stomatitis virus, read-out: EC50 vs. pseudotyped virus (μM) VSV.

Like-named read-outs stand apart in the source and are kept apart here.

In the case of `Cc1nn(C)c(Cl)c1S(=O)(=O)NNC(=O)NC(C)(C(F)(F)F)C(F)(F)F` [Example 21, N-2-(1,1,1,3,3,3-Hexafluoro-2-methylpropyl)-2-[2-(5-chloro-1,3-dimethyl-1H-pyrazolyl)sulfonyl]hydrazine-1-carboxamide], the figures for the EC50 (in [1]; with Candide I) were 500 to 1000 nM and 1000 to 5000 nM, respectively.

For `CC(=O)c1ccc(S(=O)(=O)NNC(=O)NC(C)(C(F)(F)F)C(F)(F)F)cc1` [Example 39, N-2-(1,1,1,3,3,3-Hexafluoro-2-methylpropyl)-2-[(4-acetylphenyl)sulfonyl]hydrazine-1-carboxamide], the values for the EC50 (in [1]; in the data set with Candide I) were 1000 to 5000 nM and greater than 5000 nM, respectively.

For orientation: EC90 means the concentration needed for an effect of 90%. For the molecule `CCC(NC(=O)NNS(=O)(=O)c1ccc(C)cc1)(C(F)(F)F)C(F)(F)F` [ST-336], the EC50 in the data set with Tacaribe virus [2] was 55 nM; with Tacaribe virus [3], 100 nM; in the data set with Candid-1 vaccine virus [4], 62 nM; in the data set on Amapari virus, greater than 20000 nM; in the data set with Machupo virus it was 150 nM; in the data set on Guanarito virus, 300 nM. The EC50 with Junin virus was 150 nM; in the data set with Lassa virus, greater than 20000 nM; with LCMV, greater than 20000 nM; with HSV-1, greater than 20000 nM; in the data set on CMV it was greater than 20000 nM; with vaccinia virus, greater than 20000 nM. Besides, the EC50 with RSV-A, with Rotavirus, with SARS-CoV and in the data set on Ebola virus was greater than 20000 nM throughout. Further, the EC90 in the data set with Tacaribe virus [2] (read-out: Tacaribe (CPE) EC90) was determined as 125 nM. Moreover, the “effect on Tacaribe virus yield” value in the data set on Tacaribe virus [5] is reported as “no effect on virus yield”. In addition, the “effect on Tacaribe virus yield by time of addition” value in the data set on Tacaribe virus [5] is given as “exerted its inhibitory effect only at the very early stage in the virus life cycle”. Besides, the “binding to intact virus (serial dilution)” value in the data set on intact Tacaribe virion [6] is “binds with at least a slow Koff to intact protein present on Tacaribe virus”. Moreover, the “binding to intact virions (dialysis)” value with intact Tacaribe virion [7] is listed as “binds intact virions with a very slow dissociation constant”. The “growth of ST-336 DR isolates in the presence of compound” value in data set [8] is listed as “unaffected”. The “pharmacokinetic (PK) properties in rodents” value in data set [9] was “poor pharmacokinetic (PK) properties”.

Take `NC(=O)c1ncn([C@@H]2O[C@H](CO)[C@@H](O)[C@H]2O)n1` [ribavirin, Ribavirin]: the adverse effects entry in data set [10] was “dose-related, reversible hemolytic anemia”.

By CC50 is commonly meant the concentration that lowers cell viability or growth by half. For `CC(NC(=O)NNS(=O)(=O)c1ccc(OC(F)F)cc1)(C(F)(F)F)C(F)(F)F` [ST-294, N-2-(1,1,1,3,3,3-hexafluoro-1-methylpropyl)-2-[(4-difluoromethoxyphenyl)sulfonyl]hydrazine-1-carboxamide], the “in vitro antiviral concentration required to inhibit Tacaribe virus CPE (EC50)” value in the data set with Tacaribe virus [2] turned out to be 0.066 µg/mL. The EC50 in the data set on Tacaribe virus [2] came to 120 nM; in the data set with Tacaribe virus [3], 100 nM; with Machupo virus, 300 nM; in the data set on Guanarito virus it was 1000 nM; in the data set on Junin virus, 300 nM. Moreover, the “efficacy (survival, delay in death)” value with Tacaribe virus [11] is listed as “showed efficacy”. Further, in [8], the “susceptibility of drug resistant Tacaribe mutants (DR#1-4)” value was “cross-resistance”. The same molecule came in with a CC50 in the data set with Vero cells greater than 50000 nM. In data set [12], the “Genotoxicity (Ames test)” value is listed as “negative”. For the same molecule, the “PK (rat/oral) ½ life” value in data set [13] worked out at 2 h. Further, the “Cmax (serum levels)” value in [13] (rat, po) came to 6670 ng/mL. Moreover, the “PK (newborn mouse/IP) Cmax” value in data set [14] was 2910 ng/mL. The “PK (newborn mouse/IP) ½ life” value in [14] was found to be 3 h. In addition, in data set [15], the tolerability entry was “well tolerated”.

In the case of `CCC(NC(=O)NNC(=O)c1ccccc1-c1ccccc1)(C(F)(F)F)C(F)(F)F` [Example 103], the EC50 in the data set on Tacaribe virus [16] is 500 to 1000 nM; in the data set with Candid-1 vaccine virus [17] it was 1000 to 5000 nM; in data set [18] it was less than 0.5 µM; in data set [19] it was less than 0.5 µM; in [20] it was less than 0.5 µM; in data set [21] it was 1 to 5 µM. Besides, in the data set on VSV pseudotyped virus, the EC50 is greater than 5 µM.

Regarding `CCC(NC(=O)NNC(=O)c1ccc(C(C)C)cc1)(C(F)(F)F)C(F)(F)F` [Example 109, N-[1,1-bis(trifluoromethyl)propyl]-2-(4-isopropylbenzoyl)hydrazinecarboxamide], the EC50 in the data set with Tacaribe virus [16] was less than 500 nM; in the data set with Candid-1 vaccine virus [17] it was 1000 to 5000 nM; in [18] it was less than 0.5 µM; in data set [19], less than 0.5 µM; in data set [20] it was less than 0.5 µM; in data set [21], greater than 5 µM. In addition, the EC50 in the data set on VSV pseudotyped virus is greater than 5 µM.

In the case of `CCC(NC(=O)NNC(=O)c1ccc(Cl)c(Cl)c1)(C(F)(F)F)C(F)(F)F` [Example 107, N-[1,1-bis(trifluoromethyl)propyl]-2-(3,4-dichlorobenzoyl)hydrazinecarboxamide], the EC50 in the data set on Tacaribe virus [16] was 500 to 1000 nM; in the data set on Candid-1 vaccine virus [17] it was 1000 to 5000 nM; in data set [18], less than 0.5 µM; in data set [19], less than 0.5 µM; in data set [20] it was less than 0.5 µM; in data set [21], 1 to 5 µM. Further, the EC50 with VSV pseudotyped virus was greater than 5 µM.

These data come from patent publication US8658697B2 (priority 2004, dated 2014).
